According to US20180036439A1, “COUPLED IDENTIFICATION AND TREATMENT OF CANCER” (priority 2009, published 2018):
Values belong to the compound of their own block, whether it stands above or below them.

Legend:
Format in all cases: in vivo, human
[1] = test system: liver tumors (hepatocellular carcinoma); test: gallium scan (planar and SPECT) after intravenous ^67Ga citrate; conditions: 134 MBq ^67Ga citrate i.v., one patient
Procedure: Very briefly, a gallium scan is performed by administering a small amount of a gallium radioisotope (usually ^67Ga) to a subject and then scanning the subject to map the distribution of resulting radioactivity in the body; the amount of radioactivity will be directly proportional to the uptake of gallium. Scanning is performed on the whole body or portions of the body using a scintillation detector or other suitable radiation detector.
Scanning is performed using a scintillation detector or another detector that is sensitive to the radiation produced by the gallium radioisotope (e.g., gamma rays for ^67Ga). For ^67Ga, a multipeak gamma camera with a large field of view and head shielding is commonly used. Scans may be either planar (two-dimensional (2-D) imaging) or as multiple tomographic scans leading to three-dimensional (3-D) imaging. The latter scans generally employ single-photon emission computerized tomography (SPECT or SPET), which may provide higher contrast and localization than planar images alone.
Planar and SPECT images were obtained 48 hours after ^67Ga citrate administration. […] At that time the subject was experiencing moderate nausea, anorexia, and fatigue, with severe pain and tenderness of the right abdomen that prevented the subject from lying on their right side.

[2] = test system: non-resectable primary liver cancer (hepatocellular carcinoma); test: oral gallium maltolate treatment of a subject with primary liver cancer; conditions: one patient
Procedure: (§1) The subject of this study was a person who was diagnosed with non-resectable primary liver cancer (hepatocellular carcinoma). The diagnosis was based on results of x-ray CT scans and tumor biopsy. Within two weeks of diagnosis the subject began treatment with Nexavar® (sorafenib) at a dose of 800 mg/day.
Based on the high avidity of the subject's hepatocellular carcinoma for gallium, as shown by the gallium scans, treatment of the patient with orally administered gallium maltolate was initiated. Treatment was started about a week after the gallium scans were performed. Gallium maltolate was administered as two 750 mg tablets taken once per day before breakfast (for a dose of 1500 mg/day). The largest tumor was about 20 cm in diameter by CT scan at three weeks before gallium maltolate administration was started.
The patient reported that their right abdominal pain was nearly gone, and they could lie and sleep on their right side.

[3] = tolerability of Nexavar treatment in the subject with primary liver cancer; conditions: 800 mg/day, terminated after about 10 weeks; one patient
Procedure: as §1

[4] = about four months into treatment, 1500 mg/day oral
[5] = two weeks after start of 1500 mg/day oral

gallium uptake in the surrounding liver tissue and in other organs ([1]; images 48 hours after administration): very low uptake | gallium uptake in the liver tumors, average counts per second relative to surrounding healthy liver tissue ([1]; planar and SPECT images 48 hours after administration): twenty to fifty
SMILES: O=C([O-])CC(O)(CC(=O)[O-])C(=O)[O-].[67Ga+3] [^67Ga citrate]

SMILES: Cc1occc(=O)c1[O-].Cc1occc(=O)c1[O-].Cc1occc(=O)c1[O-].[Ga+3] [gallium maltolate, tris(3-hydroxy-2-methyl-4H-pyran-4-onato)gallium]
state of the primary tumor by CT scan [2, 4]: apparent necrosis of the primary tumor | tumor growth by CT scan [2, 4]: no new tumor growth | patient's condition ([2]; over the next six months of treatment, 1500 mg/day oral): continued to improve | serum bilirubin (total) ([2]; two weeks after start of 1500 mg/day oral, before treatment 27.5, normal 2-20): 11.9 µmol/L | serum AST ([2]; two weeks after start of 1500 mg/day oral, before treatment 132, normal 0-40): 70 IU/L | ability to engage in normal activities [2, 5]: substantially increased | right abdominal pain (patient report) [2, 5]: nearly gone

SMILES: CNC(=O)c1cc(Oc2ccc(NC(=O)Nc3ccc(Cl)c(C(F)(F)F)c3)cc2)ccn1 [Nexavar®, sorafenib]
adverse effects that led to termination of treatment [3]: severe peripheral neuropathy, nausea, fatigue, gastrointestinal disorders, and anorexia
